Consider eight molecules from paper PMC10870298, “Rational Design of Antifungal Peptides Based on the γ-Core Motif of a Neosartorya (Aspergillus) fischeri Antifungal Protein to Improve Structural Integrity, Efficacy, and Spectrum” (ACS Omega, 2024).

Where two headings read alike, the source gives them in different places. Residues, ends and D or L forms follow the SMILES beside them. *: point of attachment. tBu = CC(C)(C)*

For one data set, the system named is A. fumigatus CBS 101355. It counts as cell-based, Aspergillus fumigatus. How it is done:
(§1) The lyophilized and stored peptides were dissolved in sterile ddH2O (5 mg mL^–1). Then, half of the volume of the peptide stock was tested for antifungal activity and stored at −20 °C until RP-HPLC and ECD analyses. This peptide sample is termed the −20 °C sample. The other half volume of the stock was stored at 4 °C for 7 days, tested for antifungal activity, and stored at −20 °C until RP-HPLC and ECD analyses. This peptide sample is referred to as the 4 °C sample.
(§2) MICs of NFAP γ-core peptide derivatives were determined against C. albicans SC5314 and A. fumigatus CBS 101355. These fungi were maintained on yeast peptone dextrose agar (YPD: 10 g L^–1 yeast extract, 20 g L^–1 peptone, 20 g L^–1D-glucose, 15 g L^–1 agar) and malt extract agar (MEA, Sigma-Aldrich) slants at 4 °C, respectively. Susceptibility tests were performed in low cationic medium (LCM: 5 g L^–1D-glucose, 0.25 g L^–1 yeast extract, 0.125 g L^–1 peptone) according to Tóth et al. (2018)[16] and Tóth et al. (2020)[19] for yeasts and molds, respectively, with slight modifications. Briefly, 100 μL NFAP γ-core peptide (0.39–400 μg mL^–1 in two-fold serial dilutions in LCM) was mixed with 100 μL of 2 × 10^5 mL^–1 mid-log phase C. albicans cells or freshly harvested A. fumigatus conidia in LCM in a flat-bottom 96-well microtiter plate (TC Plate 96 Well, Suspension, F; Sarstedt, Nümbrecht, Germany). A mixture of 100 μL of medium (LCM) without NFAP γ-core peptide derivative and 100 μL of cell or conidium suspension served as the untreated growth control, whereas 200 μL of LCM was used for background calibration. The plates were incubated statically for 48 h (C. albicans) or 72 h (A. fumigatus) at 30 °C. The absorbance (OD620) of each well was measured after shaking for 5 s using a microtiter plate reader (SPECTROstar Nano; BMG Labtech, Ortenberg, Germany). The absorbance of the untreated control was taken as 100% growth for the MIC calculation. MIC was defined as the lowest peptide concentration that reduced fungal growth by […] compared with the untreated control. Susceptibility tests were performed in two technical replicates and were repeated at least two times.

In data set [1] the test system is C. albicans SC5314. Type of data set: cell-based, Candida albicans. The following applies: SC5314, 48 h. How it is done:
as §1, §2

The subject of data set [2] is C. albicans SC5314. As to the kind of experiment: Cell-killing efficacy: growth kinetics of high-density culture and drop viability on YPD agar. It counts as cell-based, Candida albicans. The following applies: for growth of high-density C. albicans culture: OD600 = 0.2 mid-log cells, LCM, 30 °C, 24 h; for proportion of cells able to multiply (culture drops on YPD agar after treatment): 24 h treatment at 30 °C, then 5 μL drops on YPD agar 24 h at 30 °C. Here is the method:
Compared with MIC determination, monitoring the growth kinetics of high-density cell cultures in the presence of various peptide concentrations allows for detailed insight into the cell-killing efficacy over time and how cysteine modifications influence it. Therefore, the growth of high-density C. albicans cell culture (OD600 = 0.2) was monitored in the presence of 0.5× MIC, 1× MIC, and 2× MIC of the NFAP γ-core peptides.
The experiment was conducted in a flat-bottom 96-well microtiter plate (TC Plate 96 Well, Suspension, F; Sarstedt, Nümbrecht, Germany): 100 μL of OD600 = 0.2 mid-log phase cells prepared in LCM were mixed with 100 μL of 1× MIC, 2× MIC, or 4× MIC of the peptide diluted in LCM. The plates were incubated statically at 30 °C for 24 h. The absorbance (OD600) of each well was then measured after shaking for 5 s every hour using a microtiter plate reader (BioTek Synergy HTX Multi-Mode Microplate Reader; Agilent Technologies, Santa Clara, CA, USA). Untreated cells (100 μL LCM mixed with 100 μL OD600 = 0.2 mid-log phase cells prepared in LCM) served as growth controls. To examine the viability of the treated C. albicans cells, 5–5 μL cultures from each well were dropped onto the YPD agar plate after the last OD600 measurement and allowed to dry before incubation at 30 °C for 24 h. The plates were photographed (Versa Doc Imaging System 4000 MP; Bio-Rad, Hercules, CA, USA). These experiments were repeated two times, involving three technical replicates.

Data set [3] is described as follows: Structural integrity (disulfide bridge formation on storage) by RP-HPLC. Type of data set: physicochemical. Here is the method: The half volume of the dissolved lyophilized peptides was promptly stored at −20 °C for 7 days. The other half volume of these peptides was stored at 4 °C for 7 days (oxidative condition) and then at −20 °C until RP-HPLC and electronic circular dichroism (ECD) analyses were performed. Herein, these peptide samples are referred to as −20 and 4 °C samples, respectively.
as §1
Crude peptides were purified by semipreparative RP-HPLC using a solvent system of (A) 0.1% TFA and (B) 80% acetonitrile, 0.1% TFA, and a linear gradient from 0 to 30% (B) in 60 min. Purification was performed on a Phenomenex Jupiter Proteo 90 Å column (250 × 10 mm) using a Shimadzu HPLC apparatus (Berlin, Germany). Absorbance was detected at 220 nm. Purity was evaluated by analytical RP-HPLC using a Phenomenex Luna 10 μ C18 100 A column and an Agilent 1100 HPLC instrument (Palo Alto, CA, USA).

For data set [4], the system named is human cell lines (monocytes, colonic epithelial cells, keratinocytes). As to conditions: cited from earlier work. The text has this:
(§3) The clinical application of antimicrobial peptides is limited by their potential hemolytic activity, toxicity, immunogenicity, and other side effects.[27] […] Herein, we investigated how cysteine–serine substitution(s) and S-tert-butylation of these peptides influence hemolytic activ ...

Another data set has as its system sheep blood. The following applies: cited from earlier work.
Description: as §3

The subject of data set [5] is plant pathogenic filamentous fungi. The following applies: previous studies; cited from earlier work. An excerpt:
Presumably, these peptides exert an antifungal mechanism through membrane disruption,[17] and the high positive net charge supports this mechanism. Additionally, neither hydrop ...

The mark [6] stands for this setting: 1 and 2× MIC, OD600 hourly, repeated two times, three technical replicates.
The mark [7] stands for this setting: 4 °C sample: 5 mg mL^–1 in sterile ddH2O stored at 4 °C for 7 days (oxidative condition).

As to `CC(=O)N[C@@H](CCC(=O)O)C(=O)N[C@@H](Cc1ccc(O)cc1)C(=O)N[C@@H](CCCCN)C(=O)NCC(=O)N[C@@H](CCCCN)C(=O)N[C@@H](CSC(C)(C)C)C(=O)N[C@@H](CCCCN)C(=O)N[C@H](C(=O)N[C@@H](CCCCN)C(=O)N[C@@H](CCCCN)C(=O)N[C@@H](CC(N)=O)C(=O)N[C@@H](CCCCN)C(=O)N[C@@H](CSC(C)(C)C)C(=O)N[C@@H](CCCCN)C(N)=O)[C@@H](C)O` [NFAPimpγ^S-tBu] (Ac-EYKGKC(tBu)KTKKNKC(tBu)K-NH2), the MIC against A. fumigatus CBS 101355 (CBS 101355, 72 h) is listed as 25 μg mL^–1; with A. fumigatus CBS 101355 (storage sample not specified, LCM, 72 h at 30 °C), 25 μg mL^–1; against C. albicans SC5314 [1] it was 50 μg mL^–1. Besides, the “growth of high-density C. albicans culture” value (“growth” below) in the data set with C. albicans SC5314 [2] (0.5× MIC, compared with unmodified NFAPimpγ) is “extended the time when the C. albicans culture started to multiply intensively”. Further, the “proportion of cells able to multiply (culture drops on YPD agar after treatment)” value (shortened to “proportion of cells able to multiply”) in the data set on C. albicans SC5314 [2] (1–2× MIC) is listed as “highly reduce the proportion of cells able to multiply”.

“Ac-EYKGKSKTKKNKSK-NH2 [NFAPimpγ^C6S,C13S]”: the MIC is above 200 μg mL^–1 against A. fumigatus CBS 101355 (CBS 101355, 72 h) and 50 μg mL^–1 against C. albicans SC5314 [1]. For the same molecule, in the data set on C. albicans SC5314 [2] (setting [6]), the “growth” value is given as “could not fully inhibit the growth”.

As to `CC[C@H](C)[C@H](NC(=O)[C@H](CCCCN)NC(=O)[C@H](CSC(C)(C)C)NC(=O)[C@H](CCCCN)NC(=O)[C@@H](NC(=O)[C@H](CCCCN)NC(=O)[C@@H](NC(=O)[C@H](CCC(=O)O)NC(C)=O)[C@@H](C)CC)[C@@H](C)CC)C(=O)N[C@@H](CCCCN)C(=O)N[C@@H](CCCCN)C(=O)N[C@H](C(=O)N[C@@H](CCCCN)C(=O)N[C@@H](CSC(C)(C)C)C(=O)N[C@@H](CCCCN)C(N)=O)[C@@H](C)CC` [NFAPimpγGZ^S-tBu] (Ac-EIKIKC(tBu)KIKKIKC(tBu)K-NH2), the MIC is 25 μg mL^–1 with A. fumigatus CBS 101355 (CBS 101355, 72 h) and 25 μg mL^–1 against C. albicans SC5314 [1]. In the data set with C. albicans SC5314 [2] (1× MIC), the “growth” value was “inhibited the growth”. Besides, the “proportion of cells able to multiply” value in the data set on C. albicans SC5314 [2] (2× MIC) is “highly reduce the proportion of cells able to multiply”.

As for “Ac-EIKIKSKIKKIKSK-NH2 [NFAPimpγGZ^C6S,C13S]”, the MIC amounted to 50 μg mL^–1 in the data set with A. fumigatus CBS 101355 (CBS 101355, 72 h) and 25 μg mL^–1 with C. albicans SC5314 [1]. Also, the “growth” value with C. albicans SC5314 [2] (2× MIC) is listed as “could not inhibit the growth”.

Molecule `CC(=O)N[C@@H](CCC(=O)O)C(=O)N[C@@H](Cc1ccc(O)cc1)C(=O)N[C@@H](CCCCN)C(=O)NCC(=O)N[C@@H](CCCCN)C(=O)N[C@@H](CS)C(=O)N[C@@H](CCCCN)C(=O)N[C@H](C(=O)N[C@@H](CCCCN)C(=O)N[C@@H](CCCCN)C(=O)N[C@@H](CC(N)=O)C(=O)N[C@@H](CCCCN)C(=O)N[C@@H](CS)C(=O)N[C@@H](CCCCN)C(N)=O)[C@@H](C)O` [NFAPimpγ] (Ac-EYKGKCKTKKNKCK-NH2) registered an MIC in the data set with A. fumigatus CBS 101355 (CBS 101355, 72 h) above 200 μg mL^–1. Further, in data set [3] (setting [7]), the “oxidation / disulfide bridge formation (in words)” value is “total amount of the peptide was cyclized”. Besides, in data set [3] (–20 °C sample: 5 mg mL^–1 in sterile ddH2O stored at −20 °C for 7 days), the “share of the peptide with intramolecular disulfide bridges (cyclic form)” value was “approximately 60%”. The “proportion of cells able to multiply” value with C. albicans SC5314 [2] (2× MIC) was “highly reduce the proportion of cells able to multiply”. Further, the “toxicity to various human cell lines” value in data set [4] is reported as “not toxic”. The hemolysis result with sheep blood is listed as “did not cause hemolysis”. The antifungal activity result in data set [5] is recorded as “effectively inhibit the growth”.

For Ac-EYKGKCKTKKNKSK-NH2 [NFAPimpγ^C13S], the MIC in the data set on A. fumigatus CBS 101355 (CBS 101355, 72 h) is reported as above 200 μg mL^–1; against C. albicans SC5314 [1] it was 50 μg mL^–1. Besides, the “share of the peptide in dimer form” value in data set [3] (setting [7]) is given as “approximately 60%”. In addition, the “growth” value with C. albicans SC5314 [2] (setting [6]) is “could not fully inhibit the growth”.

Take Ac-EIKIKCKIKKIKSK-NH2 [NFAPimpγGZ^C13S]: the MIC was found to be 50 μg mL^–1 against A. fumigatus CBS 101355 (CBS 101355, 72 h) and 25 μg mL^–1 in the data set on C. albicans SC5314 [1]. The “growth” value in the data set on C. albicans SC5314 [2] (2× MIC) was “total or high growth inhibitions”.

As for `CC(=O)N[C@@H](CCC(=O)O)C(=O)N[C@@H](Cc1ccc(O)cc1)C(=O)N[C@@H](CCCCN)C(=O)NCC(=O)N[C@@H](CCC(=O)O)C(=O)N[C@@H](CS)C(=O)N[C@@H](Cc1ccccc1)C(=O)N[C@H](C(=O)N[C@@H](CCCCN)C(=O)N[C@@H](CC(=O)O)C(=O)N[C@@H](CC(N)=O)C(=O)N[C@H](C(=O)N[C@@H](CS)C(=O)N[C@@H](CCCCN)C(N)=O)[C@@H](C)O)[C@@H](C)O` [NFAPγ] (Ac-EYKGECFTKDNTCK-NH2), the MIC in the data set on A. fumigatus CBS 101355 (CBS 101355, 72 h) is above 200 μg mL^–1; against C. albicans SC5314 [1] it was above 200 μg mL^–1. In addition, in data set [3] (setting [7]), the “oxidation / disulfide bridge formation (in words)” value was “most of this peptide formed intramolecular, whereas a smaller part formed an intermolecular disulfide bond”. Moreover, in data set [5], the antifungal activity entry was “did not exhibit antifungal activity”.
